The values that follow come from patent KR20100075412A, “방사성 세포 표지자” (경북대학교 산학협력단, priority 2008, dated 2010).

Where two headings read alike, the source gives them in different places.

The test system of one data set is cells [세포]. The note with it: cited from earlier work.
Data set [1] is described as follows: MicroPET imaging after tail vein injection of [124I]HIB. The format is in vivo. The conditions noted are these: mouse.
The next data set relates to labelled cells [표지한 세포]. The data set can be described thus: MicroPET imaging after tail vein injection of [124I]HIB-labelled cells. The format is in vivo. The conditions noted are these: mouse, imaged for 2 h after injection, for 2 h at 18 h, and up to 66 h (about 3 days).
The test system of a further data set is L6 cells. The data set can be described thus: Cell labelling with [131I]OIB / [131I]HIB, L6 cells. The format is cell-based, rat. The conditions noted are these: for cell labelling yield: L6, in PBS, centrifuged and washed several times.
Another data set concerns H9C2 cells. The data set can be described thus: Cell labelling with [131I]OIB / [131I]HIB, H9C2 cells. The format is cell-based. The note with it: H9C2, in PBS, centrifuged and washed several times.
The subject of the next data set is HeLa cells. The experiment in a line: Cell labelling with [131I]OIB / [131I]HIB, HeLa cells. The format is cell-based. The conditions noted are these: in PBS, centrifuged and washed several times.
A further data set relates to 4T1 cells. The experiment in a line: Cell labelling with [131I]OIB / [131I]HIB, 4T1 cells. The format is cell-based. The conditions noted are these: 4T1, in PBS, centrifuged and washed several times.
In another data set the test system is SCC-7 cells. The data set can be described thus: Cell labelling with [131I]OIB / [131I]HIB, SCC-7 cells. The format is cell-based. The conditions noted are these: SCC-7, in PBS, centrifuged and washed several times.
The test system of data set [2] is rat cardiomyocytes L6 [랫트(rat) 심근세포 L6]. The experiment in a line: Gamma camera imaging of labelled L6 cells transplanted into rat myocardium. The format is in vivo. The conditions noted are these: L6 labelled for 2 h, transplanted directly into rat myocardium.
For data set [3], the system named is cells with introduced L6-NIS/GFP reporter [L6-NIS/GFP 리포터가 이입된 세포]. The data set can be described thus: Gamma camera and GFP imaging of labelled L6-NIS/GFP cells injected subcutaneously in nude mice. The format is in vivo, nude mouse.

Turning to `OC[C@H]1OC(O)[C@H]([18F])[C@@H](O)[C@@H]1O` (stereo partly drawn) [[18F]FDG, 2-[18F]fluoro-2-deoxy-D-glucose], the “release of label from cells” value with cells [세포] was “수 시간 후에 세포에서 떨어져 나와”.
With `O=C(ON1C(=O)CCC1=O)c1ccc([18F])cc1` [[18F]FSB, N-succimidyl-4-[18F]fluorobenzoate], the “loss of label from cells” value in the data set on cells [세포] (according to previous results) is given as “알킬레이트된 부분이 신진 대사로 방출되면서 세포에서 표지자가 빠져나가는 것으로 여겨진다”.
`CNC(=S)NN=CC(C)=NNC(=S)NC.[64Cu]` [[64Cu]PTSM, [64Cu]pyruvaldehyde-bis-(n4-methyl-thiosemicarbazone)]: in the data set with cells [세포] (after incubation with cells), the “release of label from cells” value was “수 시간 후에 세포에서 떨어져 나와”. In addition, the “duration of cell labelling” value in the data set with cells [세포] (compared with other F-18/Cu-64 labelling) is reported as “좀 더 장기간 세포 표지가 가능하였다”.
`CCCCCCCCCCCCCCCCOC(=O)c1ccc([124I])cc1` [[124I]HIB]: in data set [1], the “accumulation in thyroid and bladder (microPET)” value is “갑상선과 방광 부위에 [124I]HIB가 축적되는 것을 확인”; the “accumulation of activity in liver (microPET)” value was “간 위치에 활성도가 축적”. Besides, the excretion route entry in [1] (inferred from liver activity) is “간을 통하여 배출되는 것으로 여겨진다”. Moreover, the “time up to which labelled cells were seen accumulated in lung (microPET)” value with labelled cells [표지한 세포] turned out to be 66 h.
Take `CCCCCCCCCCCCCCCCOC(=O)c1ccc([131I])cc1` [[131I]HIB]: the cell labelling yield in the data set on L6 cells, in the data set on H9C2 cells, in the data set with HeLa cells, in the data set on 4T1 cells and with SCC-7 cells was ≥ 20% in each case.
With `CCCCCCCC/C=C\CCCCCCCCOC(=O)c1ccc([131I])cc1` [[131I]OIB], the cell labelling yield in the data set with L6 cells, in the data set on H9C2 cells, in the data set with HeLa cells, in the data set on 4T1 cells and in the data set with SCC-7 cells was ≥ 20% throughout. Also, the cell labelling efficiency in the data set with L6 cells ([131I]OIB 136 μCi, 4x10^5 L6 cells in serum-free medium, room temperature, 30 min, washed twice with PBS) was 26%. Besides, the “period over which transplanted labelled cells were imaged by gamma camera” value in [2] amounted to 2 weeks. Also, the “time up to which GFP imaging was measurable” value in data set [3] (1x10^7 [131I]OIB-labelled cells s.c. in each thigh and shoulder of nude mouse) is recorded as 14 days. Further, in data set [3] (1x10^7 cells s.c. in each thigh and shoulder of nude mouse, gamma camera day 1 to 14), the “time up to which labelled cells were visible by gamma camera” value is given as 14 days.
